# Experiments:
# [1] = test system: HaCaT cells; experiment: TUNEL assay; assay type: cell-based, human; conditions: 48 h
# Procedure: Terminal deoxynucleotidyl transferase (TdT) dUTP Nick-End Labeling (TUNEL) assay has been designed to detect apoptotic cells that undergo extensive DNA degradation during the late stages of apoptosis. […] Cells were treated with test item (IS217 of 100 μg/ml-5000 μg/ml) and positive controls like curcumin (10 μM and 20 μM), anthralin (1 μM) and betullininc acid (10 μg/ml, 20 μg/ml, 50 μg/ml). After about 48 hours of treatment, cells were analysed for the apoptotic effect via TUNEL assay. Absorbance was measured using ELISA reader (Table 1).
# [2] = test system: VEGF secretion; experiment: cells; conditions: Homo sapiens, HaCaT, read-out: inhibition of VEGF
# [3] = test system: IL-23 secretion; experiment: Inhibition of IL-23 secretion in monocytes THP-1 (LPS and IFN-γ, ELISA); assay type: cell-based, human
# Procedure: The study was conducted to assess anti-inflammatory potential of test item, IS217 in human monocytic cell line (THP-1) by assessing percentage inhibition of IL-23 in monocytes by using ELISA method.
# Curcumin was taken as positive control for in-house validation. For determining inhibitory activity against IL-23 secretion, human monocytic cell line (THP-1) was treated with concentration range of 10-5000 μg/ml with LPS (1 μg/ml) and IFN-γ. LPS (1 μg/ml) and IFN-γ (100 ng/ml) alone were taken as a positive control. After about 24 hours of incubation, IL-23 levels were estimated by ELISA in supernatants corresponding to non-cytotoxic concentrations at 10 to 5000 μg/ml and absorbance of samples was determined by using ELISA reader.
# [4] = test system: IL-17 secretion; experiment: IL-17 inhibition in ConA stimulated splenocytes (ELISA); assay type: cell-based, C57BL/6 mice; conditions: Mus musculus, Splenocyte, read-out: inhibition of IL-17 w.r.t. control (ConA) levels
# Procedure: The study was conducted to assess anti-inflammatory potential of test item IS217 in murine splenocytes isolated from C57BL/6 mice for assessing percentage inhibition of IL-17 in splenocytes by using ELISA method. […] Curcumin was taken as positive control for in-house validation.
# For determining inhibitory activity against IL-17 secretion level, splenocytes cells were treated with the concentration range of 10 to 5000 μg/ml along with Con A stimulation (5 μg/ml), Con A alone treated cells were used as a positive control. After incubating for about 24 hours, IL-17 levels were estimated by ELISA corresponding to non-cytotoxic concentrations at 10 to 2000 μg/ml and absorbance of samples was determined by using ELISA reader.
# [5] = test system: human keratinocytes (HaCaT) cells; experiment: Cytotoxicity of methotrexate in combination with IS217, combination index method (MTT); assay type: cell-based; conditions: methotrexate alone 0.01-5 μM, 72 h
# Procedure: Assessment of cytotoxicity of methotrexate in combination with IS217 on proliferation of human keratinocytes (HaCaT) cells was performed by using combination index method. HaCaT cell line is maintained by using DMEM, 10% FBS, CO2 incubator and after overnight incubation cells were replenished by using about 1% FBS and then the cells were treated with different concentrations (0.01, 0.1, 0.25, 0.5, 1, 5 μM) of methotrexate alone, IS217 (10, 50, 500, 1000, 2000, 5000 μg/ml) alone, combination of methotrexate (0.01, 0.1, 0.25, 0.5, 1, 5 μM) and IS217 (10, 50, 500, 1000, 2000, 5000 μg/ml) to achieve different combinations.
# IS217 was added to the above combinations every 24 hours (i.e., three doses) whereas methotrexate was added only once in 72 hours during the 72 hours of incubation. Then the plates were subjected for MTT assay and percentage inhibition (cytotoxicity) corresponding to each treatment was calculated.
# [6] = test system: TPA induced ear inflammation model in C57BL/6 mice; experiment: IS217 alone and in combination with methotrexate and betamethasone in TPA induced ear inflammation model; assay type: in vivo
# Procedure: The experimental procedure, doses and route of administration were same as IMQ model. Test item IS217 was administered subcutaneously either alone or in combination with standard methotrexate (MTX) and betamethasone (BD) to diseased animals.
# [7] = test system: VEGF secretion; experiment: Inhibition of VEGF secretion in HUVEC cells; assay type: cell-based, human; conditions: 1 mg/ml
# Procedure: The study was conducted to evaluate anti-angiogenic effect of IS217 in HUVEC cells. […] Bevacizumab (1 mg/mL) was taken as positive control for validation purpose.
# [8] = test system: HUVEC cells; experiment: Tube formation assay in HUVEC cells (VEGF induced); assay type: cell-based, human; parameters: Tube formation assay results, Avg: scale not given here
# Procedure: HUVEC cells were used as test system to determine angiogenic effect of IS217 by assessing the inhibitory effects of test item on endothelial cells tube formation. Prior to the tube formation assay, test item of concentration ranging 0.01 μg/ml to 1000 μg/ml were used to treat endothelial cells for its cytotoxicity effect to assess suitable concentration for tube formation assay. […] The cells corresponding to positive control group were treated with bevacizumab of concentration 1000 μg/ml. The degree of angiogenesis progression was assessed based on visual pattern recognition of photomicrographs of HUVEC cells.
compound,measurement,setting,value
"O=C1c2c(O)cccc2Cc2cccc(O)c21 [Anthralin, reference compound]",% increase in TUNEL-Positive cell population w.r.t. control (untreated cells),[1]; 1 μM,−87.0%
"C=C(C)[C@@H]1CC[C@]2(C(=O)O)CC[C@]3(C)[C@H](CC[C@@H]4[C@@]5(C)CC[C@H](O)C(C)(C)[C@@H]5CC[C@]43C)[C@@H]12 [BA, betullininc acid, reference compound]",% increase in TUNEL-Positive cell population w.r.t. control (untreated cells),[1]; 10 μg/ml,21.3%
same,% increase in TUNEL-Positive cell population w.r.t. control (untreated cells),[1]; 20 μg/ml,48.2%
same,% increase in TUNEL-Positive cell population w.r.t. control (untreated cells),[1]; 50 μg/ml,61.6%
COc1cc(/C=C/C(=O)CC(=O)/C=C/c2ccc(O)c(OC)c2)ccc1O [Curcumin],inhibition at 1 µM,[2],22.8%
same,% increase in TUNEL-Positive cell population w.r.t. control (untreated cells),[1]; 10 μM,−72.2%
same,% increase in TUNEL-Positive cell population w.r.t. control (untreated cells),[1]; 20 μM,−76.1%
same,inhibition at 10 µM,"[3]; Homo sapiens, THP-1, curcumin 10 μM, read-out: inhibition of IL-23 w.r.t. control LPS and IFN-γ levels",91.6%
same,inhibition of IL-23 w.r.t. control LPS and IFN-γ levels,"[3]; curcumin, second concentration not given",90.6%
same,inhibition at 1 µM,[4]; curcumin 1 μM,40.5%
same,inhibition at 10 µM,[4]; curcumin 10 μM,42.5%
"CN(Cc1cnc2nc(N)nc(N)c2n1)c1ccc(C(=O)N[C@@H](CCC(=O)O)C(=O)O)cc1 [methotrexate, reference compound]",50% inhibition of cell proliferation (IC50),[5],not achieved
same,inhibitory activity against TPA induced increase in ear thickness,[6]; MTX 0.75 mg/kg,24.95%
same,inhibitory activity against TPA induced increase in ear thickness,[6]; MTX 1.5 mg/kg,46.06%
CC1=C(/C=C/C(C)=C/C=C/C(C)=C/C(=O)O)C(C)(C)CCC1 [retinoic acid],inhibition at 1 µM,[2],22.8%
"Bevacizumab: positive control, commercial formulation Avastin®, anti-VEGF",inhibition of VEGF,[7],94.51%
same,"Tube formation assay results, Avg",[8]; Bevacizumab + VEGF,0.44
same,"Tube formation assay results, Avg","[8]; Bevacizumab, without VEGF",0.33
same,inhibition of tube formation as compared to VEGF stimulation control,"[8]; HUVEC, bevacizumab 1000 μg/ml",91.1%
